Experimental data published in patent US20120232142A1, “NOVEL USE OF DIMETHYLFUMARATE” (KYUNGPOOK NATIONAL UNIVERSITY INDUSTRY ACADEMIC COOPERATION …, priority 2007, published 2012).
Counter-ions that a name gives are not always drawn.

Tests used:
p53 and p21 = assay: Western blot of p53 and p21 expression in vascular smooth muscle cells; format: cell-based, Sprague-Dawley rat; details: 5 μM; 1, 2, 3, 6, 12 hours
Experimental: (§1) For culturing vascular smooth muscle cells, vascular smooth muscle cells were isolated from the aorta of Sprague-Dawley rat and were first cultured. Vascular smooth muscle cells were cultured in a culturing apparatus having conditions of 37° C., 5% carbon dioxide until cells are grown up in culture medium containing 20% bovine fetal serum. Cells obtained from the procedure were transferred to a fresh culture dish to culture, and the initial cells subcultured up to 4 to 7 times were used in experiments.
(§2) First cultured vascular smooth muscle cells were filled in about 80 to 90% of 60 mm tissue culture dish, and the cells were stood in a medium containing 0.5% FBS for 24 hours to render the cells to be interphase status. […]
(§3) Whole proteins were separated from vascular smooth muscle cells of each group by employing RIPA buffer solution (50 mM Tris HCl, 150 mM NaCl, 5 mM EDTA, 1% NP-40, 1 mM PMSF, 1 mM DTT, 1 mg/ml protease inhibitor). Separated proteins of each sample were quantitatively analyzed, 25 μg of proteins were mixed with sample buffer solution, the mixture was boiled for 5 minutes and then cooled, electrophoresis was performed for the resulting product in sodium dodecyl sulfate polyacrylamide gel to separate depending on size, then the product was transferred to a PVDF membrane, and then reacted with p53 or p21 antibody to confirm the expression thereof. […]

pRb and CDK = assay: Western blot of Rb phosphorylation and CDK expression in vascular smooth muscle cells with PDGF; format: cell-based, Sprague-Dawley rat
Experimental: as §1
First cultured vascular smooth muscle cells were filled in about 80 to 90% of 60 mm tissue culture dish, and the cells were stood in a medium containing 0.5% FBS for 24 hours to render the cells to be interphase status. The group not treated with dimethyl fumarate was defined as a control, and experimental groups were divided into 3 groups treated with 5 μM dimethyl fumarate for 6, 12 and 24 hours, respectively, with or without PDGF. […] Separated proteins of each sample were quantitatively analyzed, 25 μg of proteins were mixed with sample buffer solution, the mixture was boiled for 5 minutes and then cooled, electrophoresis was performed for the resulting product in sodium dodecyl sulfate polyacrylamide gel to separate depending on size, then the product was transferred to a PVDF membrane, and then reacted with an antibody against pRb or Cyclin. […]

AMPK = assay: Western blot of AMPK and ACC phosphorylation in vascular smooth muscle cells; format: cell-based, Sprague-Dawley rat; details: 5 μM; 1, 2, 3, 6, 12 hours
Experimental: as §1, §2
as §3, with “Tris-HCl,” for “Tris HCl,”, “[…]” for “μg”, “pAMPK” for “p53”, “pACC” for “p21”, “phosphorylation” for “the expression”

[1] = test system: vascular smooth muscle cells; assay: Inhibition of PDGF-induced vascular smooth muscle cell proliferation (WST cell counting); format: cell-based, Sprague-Dawley rat; details: 1, 2, 5, 10 μM; PDGF 20 ng/ml; 48 hours; OD 450 nm
Experimental: For culturing vascular smooth muscle cells, vascular smooth muscle cells were isolated from the aorta of Sprague-Dawley rat and were first cultured. Vascular smooth muscle cells were cultured in a culturing apparatus having conditions of 37° C., 5% carbon dioxide until cells are grown up in culture medium containing 20% bovine fetal serum. Cells obtained from the procedure were transferred to a fresh culture dish to culture, and the initial cells subcultured up to 4 to 7 times were used in experiments. First cultured vascular smooth muscle cells were cultured in 96-well culture dish, and when growth reached 70%, they were transferred to a medium containing 0.5% bovine fetal serum, and then cultured for 24 hours and the cells was stood at interphase status. […] The number of viable cells was measured employing WST cell counting kit (WAKO, Japan). A reagent for confirming cell proliferation was treated thereto, reaction was further performed for 4 hours, and then optical density was measured at 450 nm with ELISA reader to investigate the ability of proliferating cells. The results of the experiments were shown by taking an average from values measured in more than three separate experiments.

[2] = test system: vascular smooth muscle cells; assay: Cell cycle analysis by FACS (PI staining) of vascular smooth muscle cells; format: cell-based, Sprague-Dawley rat; details: 5 μM pretreated 2 hours; growth factor and insulin 24 hours; stimulated without drug 8.7%
Experimental: For culturing vascular smooth muscle cells, vascular smooth muscle cells were isolated from the aorta of Sprague-Dawley rat and were first cultured. Vascular smooth muscle cells were cultured in a culturing apparatus having conditions of 37° C., 5% carbon dioxide until cells are grown up in culture medium containing 20% bovine fetal serum. Cells obtained from the procedure were transferred to a fresh culture dish to culture, and the initial cells subcultured up to 4 to 7 times were used in experiments. Vascular smooth muscle cells were analyzed for cell cycle employing FACS in order to confirm the effect of dimethyl fumarate on cell cycle. 5 μM dimethyl fumarate were pretreated for 2 hours in the vascular smooth muscle cells cultured in a medium containing 0.5% bovine fetal serum for 24 hours. Cells were treated with a growth factor and insulin to induce cells into replication phase, and reaction was performed for 24 hours. Then cells were collected and immobilized, and then their nucleuses were stained with propidium iodide (PI), and cell cycle was analyzed by employing FACS. Cell cycle was indicated as % by measuring 10,000 cells per each sample.

neointima = assay: Neointima formation after balloon dilation in rats fed high fat diet (H & E staining); format: in vivo, Sprague-Dawley rats; details: 4 weeks
Experimental: In order to confirm whether dimethyl fumarate inhibits the formation of neointima after balloon dilation, experiments were performed with Sprague-Dawley rats fed with food containing dimethyl fumarate. The rats were bred while maintaining conditions that the temperature of the breeding room was maintained at 22±2° C., and brightness was automatically controlled in 12 hour cycles. Rats were categorized into a normal control group, a negative control group fed with only high fat diet (20% fat, 0.05% cholesterol), and an experiment group fed with food containing 0.5% or 1% dimethyl fumarate together with high fat diet (4 rats per each group), and experiments were progressed while breeding for 4 weeks in separate cages containing one rat per cage. Balloon dilation was performed after breeding rats for 2 weeks before the balloon dilation, and breeding was performed for 2 weeks more while continuing on feeding general diet and dimethyl fumarate diet, and then their aorta were separated and the formation of neointima was confirmed with H & E (hematoxylin and eosin) staining method.

With `COC(=O)/C=C/C(=O)OC` [dimethyl fumarate] the “expression of p21” value (p53 and p21) was “increased”, the “expression of p53” value (p53 and p21) was “increased” and the “expression of CDK” value (pRb and CDK; 5 μM pretreated 2 hours, then PDGF) was “more inhibited”. For the same compound, the “phosphorylation of Rb promoted by a growth factor or CDK” value (pRb and CDK; 5 μM, 6, 12 and 24 hours, with or without PDGF) was “inhibits”, the “activity (phosphorylation) of AMPK” value (AMPK) was “initially increased” and the “phosphorylation of ACC” value (AMPK) was “continuously increased”. For the same compound, the “cell proliferation increased by platelet derived growth factor” value [1] was “inhibited as the concentration of dimethyl fumarate was increased”, the “cells in replication phase status” value [2] was 3.4% and the “formation of neointima after balloon dilation” value (neointima; food containing 0.5% dimethyl fumarate with high fat diet) was “certainly decreased”. For the same compound, the “formation of neointima after balloon dilation” value (neointima; food containing 1% dimethyl fumarate with high fat diet) was “certainly decreased”.
